Assay results from US20260356819A1, “OXOISOINDOLINYL-SUBSTITUTED […] DERIVATIVE AND USE THEREOF” (GLUETACS THERAPEUTICS (SHANGHAI) CO., LTD., priority 2023, published 2026).

Assays:
Format in all cases: cell-based
Conditions in all cases: compounds at 50 nM and 500 nM
WEE1 = target: T1, WEE1 (Homo sapiens, UniProt P30291+Q96SW2); experiment: Western blot degradation of WEE1 in hPBMCs (24 h)
T1 construct: The supernatant was aspirated as the extracted total cell protein; endogenous in cells; host or cells: human peripheral blood mononuclear cells (hPBMCs)
T1 sequence (P30291 whole entry): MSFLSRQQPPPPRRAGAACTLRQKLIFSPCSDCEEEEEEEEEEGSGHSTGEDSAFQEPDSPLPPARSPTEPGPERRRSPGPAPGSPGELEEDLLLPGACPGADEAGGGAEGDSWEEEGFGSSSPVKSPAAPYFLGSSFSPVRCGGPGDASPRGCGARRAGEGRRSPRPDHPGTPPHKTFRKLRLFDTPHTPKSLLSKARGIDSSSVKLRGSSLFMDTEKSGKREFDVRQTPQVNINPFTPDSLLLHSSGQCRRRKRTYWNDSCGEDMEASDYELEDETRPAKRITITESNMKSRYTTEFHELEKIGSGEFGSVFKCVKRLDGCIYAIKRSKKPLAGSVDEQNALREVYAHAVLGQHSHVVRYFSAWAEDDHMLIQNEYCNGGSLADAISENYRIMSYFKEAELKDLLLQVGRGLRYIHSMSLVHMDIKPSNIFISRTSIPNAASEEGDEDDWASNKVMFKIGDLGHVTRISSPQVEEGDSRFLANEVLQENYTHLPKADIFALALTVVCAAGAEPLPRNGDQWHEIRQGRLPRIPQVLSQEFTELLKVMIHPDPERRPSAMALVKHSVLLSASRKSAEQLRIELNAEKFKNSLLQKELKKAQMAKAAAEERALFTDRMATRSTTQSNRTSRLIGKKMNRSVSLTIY
T1 sequence (Q96SW2 whole entry): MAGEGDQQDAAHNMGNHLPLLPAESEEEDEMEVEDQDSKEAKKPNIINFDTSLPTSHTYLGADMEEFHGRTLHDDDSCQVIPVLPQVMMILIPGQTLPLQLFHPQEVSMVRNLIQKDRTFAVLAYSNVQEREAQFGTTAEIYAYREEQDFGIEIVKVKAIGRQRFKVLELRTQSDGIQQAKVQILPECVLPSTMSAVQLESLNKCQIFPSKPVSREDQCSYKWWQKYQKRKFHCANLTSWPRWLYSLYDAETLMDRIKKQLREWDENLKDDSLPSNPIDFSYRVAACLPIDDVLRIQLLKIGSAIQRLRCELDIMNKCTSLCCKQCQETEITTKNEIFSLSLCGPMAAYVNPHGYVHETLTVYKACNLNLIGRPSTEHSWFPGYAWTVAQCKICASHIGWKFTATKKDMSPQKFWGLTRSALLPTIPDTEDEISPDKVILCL
T1 sequence (Q16531 whole entry partner): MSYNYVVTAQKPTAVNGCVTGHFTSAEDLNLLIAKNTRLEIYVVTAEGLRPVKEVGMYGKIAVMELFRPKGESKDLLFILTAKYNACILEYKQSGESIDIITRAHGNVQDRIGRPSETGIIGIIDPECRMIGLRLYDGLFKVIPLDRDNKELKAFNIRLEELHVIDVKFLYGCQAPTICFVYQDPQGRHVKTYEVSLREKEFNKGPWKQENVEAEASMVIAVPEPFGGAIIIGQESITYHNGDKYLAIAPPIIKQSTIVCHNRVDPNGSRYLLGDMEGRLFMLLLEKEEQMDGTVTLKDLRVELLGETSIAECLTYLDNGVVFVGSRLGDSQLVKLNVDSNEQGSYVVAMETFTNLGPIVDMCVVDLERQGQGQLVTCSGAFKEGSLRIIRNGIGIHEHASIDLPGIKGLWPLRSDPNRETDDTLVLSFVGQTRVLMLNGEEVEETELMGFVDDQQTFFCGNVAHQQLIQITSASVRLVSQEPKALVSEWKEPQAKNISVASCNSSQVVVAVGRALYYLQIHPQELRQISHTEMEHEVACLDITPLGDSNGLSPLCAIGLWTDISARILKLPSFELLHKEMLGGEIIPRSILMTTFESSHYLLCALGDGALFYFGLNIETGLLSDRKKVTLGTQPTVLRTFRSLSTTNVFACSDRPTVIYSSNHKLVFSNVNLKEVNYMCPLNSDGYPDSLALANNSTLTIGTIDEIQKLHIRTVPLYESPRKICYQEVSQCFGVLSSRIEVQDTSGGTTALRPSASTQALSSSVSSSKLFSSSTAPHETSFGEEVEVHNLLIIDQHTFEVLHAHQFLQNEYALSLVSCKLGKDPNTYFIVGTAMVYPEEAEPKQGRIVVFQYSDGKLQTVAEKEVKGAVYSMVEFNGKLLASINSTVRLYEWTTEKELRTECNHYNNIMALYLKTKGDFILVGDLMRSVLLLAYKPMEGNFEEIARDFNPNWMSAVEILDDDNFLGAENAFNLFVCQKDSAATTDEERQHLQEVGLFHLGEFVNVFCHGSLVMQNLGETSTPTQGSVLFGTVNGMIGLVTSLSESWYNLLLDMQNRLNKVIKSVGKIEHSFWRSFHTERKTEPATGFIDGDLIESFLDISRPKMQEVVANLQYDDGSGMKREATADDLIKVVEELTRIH
Summary of the method: (§1)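 In this assay, each compound was incubated with human PBMCs for 24 h at 50 nM and 500 nM. Target levels were measured by Western blot densitometry normalised to an internal control.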

IKZF1 = target: T2, IKZF1 (Homo sapiens, UniProt Q13422+Q96SW2); experiment: Western blot degradation of IKZF1 in hPBMCs (24 h)
T2 construct: The supernatant was aspirated as the extracted total cell protein; endogenous in cells; host or cells: human peripheral blood mononuclear cells (hPBMCs)
T2 sequence (Q13422 whole entry): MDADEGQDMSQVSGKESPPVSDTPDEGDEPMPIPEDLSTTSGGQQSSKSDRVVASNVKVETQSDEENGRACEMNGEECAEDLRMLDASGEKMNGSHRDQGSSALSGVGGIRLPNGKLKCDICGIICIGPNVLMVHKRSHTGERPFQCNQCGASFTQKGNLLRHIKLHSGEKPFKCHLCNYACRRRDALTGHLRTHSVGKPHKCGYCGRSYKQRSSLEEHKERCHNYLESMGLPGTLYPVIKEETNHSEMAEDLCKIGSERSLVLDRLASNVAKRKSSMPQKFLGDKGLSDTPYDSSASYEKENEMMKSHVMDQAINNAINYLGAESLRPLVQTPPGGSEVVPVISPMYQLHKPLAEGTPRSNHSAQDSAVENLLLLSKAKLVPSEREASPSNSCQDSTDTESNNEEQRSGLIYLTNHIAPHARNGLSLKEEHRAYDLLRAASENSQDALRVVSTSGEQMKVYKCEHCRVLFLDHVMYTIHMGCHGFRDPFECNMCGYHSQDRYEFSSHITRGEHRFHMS
T2 sequence (Q96SW2 whole entry): as the sequence (Q96SW2 whole entry) above
T2 sequence (Q16531 whole entry partner): as the sequence (Q16531 whole entry partner) above
Summary of the method: as §1

GSPT1 = target: T3, GSPT1 (Homo sapiens, UniProt P15170+Q96SW2); experiment: Western blot degradation of GSPT1 in hPBMCs (24 h)
T3 construct: The supernatant was aspirated as the extracted total cell protein; endogenous in cells; host or cells: human peripheral blood mononuclear cells (hPBMCs)
T3 sequence (P15170 whole entry): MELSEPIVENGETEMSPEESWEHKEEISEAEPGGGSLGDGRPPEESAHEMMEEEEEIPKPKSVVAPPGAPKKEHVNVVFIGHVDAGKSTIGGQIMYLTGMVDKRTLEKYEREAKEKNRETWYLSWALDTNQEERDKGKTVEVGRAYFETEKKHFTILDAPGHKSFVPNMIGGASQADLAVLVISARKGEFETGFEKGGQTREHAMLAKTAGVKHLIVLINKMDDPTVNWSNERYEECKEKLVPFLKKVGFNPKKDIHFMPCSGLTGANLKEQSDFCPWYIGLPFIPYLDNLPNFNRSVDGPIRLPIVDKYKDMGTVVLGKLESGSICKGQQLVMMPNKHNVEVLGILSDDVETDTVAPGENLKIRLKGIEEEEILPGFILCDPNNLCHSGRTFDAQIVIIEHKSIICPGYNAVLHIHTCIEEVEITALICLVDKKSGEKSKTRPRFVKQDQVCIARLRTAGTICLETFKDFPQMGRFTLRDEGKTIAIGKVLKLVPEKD
T3 sequence (Q96SW2 whole entry): as the sequence (Q96SW2 whole entry) above
T3 sequence (Q16531 whole entry partner): as the sequence (Q16531 whole entry partner) above
Summary of the method: as §1

CK1α = target: T4, CK1α (Homo sapiens, UniProt P48729+Q96SW2); experiment: Western blot degradation of CK1α in hPBMCs (24 h)
T4 construct: The supernatant was aspirated as the extracted total cell protein; endogenous in cells; host or cells: human peripheral blood mononuclear cells (hPBMCs)
Summary of the method: as §1

IKZF2 = target: T5, IKZF2 (Homo sapiens, UniProt Q96SW2+Q9UKS7); experiment: Western blot degradation of IKZF2 in hPBMCs (24 h)
T5 construct: The supernatant was aspirated as the extracted total cell protein; endogenous in cells; host or cells: human peripheral blood mononuclear cells (hPBMCs)
T5 sequence (Q9UKS7 whole entry): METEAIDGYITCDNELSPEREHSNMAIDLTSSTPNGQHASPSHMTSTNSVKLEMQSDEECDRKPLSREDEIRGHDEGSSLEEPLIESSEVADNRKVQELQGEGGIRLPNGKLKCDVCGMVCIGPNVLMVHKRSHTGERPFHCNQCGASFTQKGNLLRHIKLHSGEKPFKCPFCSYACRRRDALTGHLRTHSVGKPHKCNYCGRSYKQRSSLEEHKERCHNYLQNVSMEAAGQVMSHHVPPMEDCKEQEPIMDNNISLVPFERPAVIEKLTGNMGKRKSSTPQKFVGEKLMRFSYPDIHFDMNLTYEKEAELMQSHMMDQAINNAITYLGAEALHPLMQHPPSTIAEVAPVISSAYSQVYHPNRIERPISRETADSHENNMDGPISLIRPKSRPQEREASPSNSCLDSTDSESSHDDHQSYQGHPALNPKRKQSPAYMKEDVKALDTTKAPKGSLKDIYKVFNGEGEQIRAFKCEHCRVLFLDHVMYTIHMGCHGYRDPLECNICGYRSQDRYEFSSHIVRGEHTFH
T5 sequence (Q96SW2 whole entry): as the sequence (Q96SW2 whole entry) above
T5 sequence (Q16531 whole entry partner): as the sequence (Q16531 whole entry partner) above
Summary of the method: as §1

IKZF3 = target: T6, IKZF3 (Homo sapiens, UniProt Q96SW2+Q9UKT9); experiment: Western blot degradation of IKZF3 in hPBMCs (24 h)
T6 construct: The supernatant was aspirated as the extracted total cell protein; endogenous in cells; host or cells: human peripheral blood mononuclear cells (hPBMCs)
T6 sequence (Q9UKT9 whole entry): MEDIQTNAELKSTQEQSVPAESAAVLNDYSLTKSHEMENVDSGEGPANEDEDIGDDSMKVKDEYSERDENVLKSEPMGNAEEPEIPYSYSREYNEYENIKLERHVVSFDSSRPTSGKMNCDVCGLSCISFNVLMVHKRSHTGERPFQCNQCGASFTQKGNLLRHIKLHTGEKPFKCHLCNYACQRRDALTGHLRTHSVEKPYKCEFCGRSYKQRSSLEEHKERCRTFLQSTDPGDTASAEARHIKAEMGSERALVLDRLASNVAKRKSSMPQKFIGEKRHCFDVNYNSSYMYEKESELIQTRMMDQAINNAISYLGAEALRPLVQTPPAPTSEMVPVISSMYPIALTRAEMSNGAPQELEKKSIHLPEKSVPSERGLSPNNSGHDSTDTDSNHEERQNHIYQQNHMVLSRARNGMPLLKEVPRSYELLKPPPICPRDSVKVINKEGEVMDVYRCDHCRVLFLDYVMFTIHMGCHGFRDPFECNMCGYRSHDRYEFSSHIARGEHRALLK
T6 sequence (Q96SW2 whole entry): as the sequence (Q96SW2 whole entry) above
T6 sequence (Q16531 whole entry partner): as the sequence (Q16531 whole entry partner) above
Summary of the method: as §1

Compound | WEE1 substrate protein remaining % (WEE1) | IKZF1 substrate protein remaining % (IKZF1) | GSPT1 substrate protein remaining % (GSPT1) | CK1α substrate protein remaining % (CK1α) | IKZF2 substrate protein remaining % (IKZF2) | IKZF3 substrate protein remaining % (IKZF3)
Cc1ccsc1C1=CCN(Cc2ccc3c(c2)C(=O)N(N2CCC(=O)NC2=O)C3=O)CC1 [GT-06434, 2-(2,4-dioxotetrahydropyrimidin-1(2H)-yl)-5-((4-(3-methylthiophen-2-yl)-3,6-dihydropyridin-1(2H)-yl)methyl)isoindoline-1,3-dione] | A (0% ≤ substrate protein remaining % ≤80%) | B (80%< substrate protein remaining % ≤100%) | A (0% ≤ substrate protein remaining % ≤80%) | B (80%< substrate protein remaining % ≤100%) | A (0% ≤ substrate protein remaining % ≤80%) | A (0% ≤ substrate protein remaining % ≤80%)
O=C1CCN(N2C(=O)c3ccc(CN4CC=C(c5ccsc5)CC4)cc3C2=O)C(=O)N1 [GT-06435, 2-(2,4-dioxotetrahydropyrimidin-1(2H)-yl)-5-((4-(thiophen-3-yl)-3,6-dihydropyridin-1(2H)-yl)methyl)isoindoline-1,3-dione] | A (0% ≤ substrate protein remaining % ≤80%) | B (80%< substrate protein remaining % ≤100%) | A (0% ≤ substrate protein remaining % ≤80%) | B (80%< substrate protein remaining % ≤100%) | A (0% ≤ substrate protein remaining % ≤80%) | A (0% ≤ substrate protein remaining % ≤80%)
C[C@@H]1CN(C(c2ccccc2)c2ccccc2)CCN1Cc1ccc2c(c1)CN(N1CCC(=O)NC1=O)C2=O [GT-06448, (R)-1-(5-((4-benzhydryl-2-methylpiperazin-1-yl)methyl)-1-oxoisoindolin-2-yl)dihydropyrimidine-2,4(1H,3H)-dione] | B (80%< substrate protein remaining % ≤100%) | B (80%< substrate protein remaining % ≤100%) | A (0% ≤ substrate protein remaining % ≤80%) | B (80%< substrate protein remaining % ≤100%) | A (0% ≤ substrate protein remaining % ≤80%) | A (0% ≤ substrate protein remaining % ≤80%)
C[C@@H]1CN(C(c2ccccc2)c2ccccc2)CCN1Cc1ccc2c(c1)C(=O)N(N1CCC(=O)NC1=O)C2=O [GT-06449, (R)-5-((4-benzhydryl-2-methylpiperazin-1-yl)methyl)-2-(2,4-dioxotetrahydropyrimidin-1(2H)-yl)isoindoline-1,3-dione] | B (80%< substrate protein remaining % ≤100%) | B (80%< substrate protein remaining % ≤100%) | A (0% ≤ substrate protein remaining % ≤80%) | B (80%< substrate protein remaining % ≤100%) | A (0% ≤ substrate protein remaining % ≤80%) | A (0% ≤ substrate protein remaining % ≤80%)
O=C1CCN(N2Cc3cc(CN4CC5CCC4CN5C(c4ccccc4)c4ccccc4)ccc3C2=O)C(=O)N1 (stereo not drawn) [GT-06450, 1-(5-((5-benzhydryl-2,5-diazabicyclo[2.2.2]octan-2-yl)methyl)-1-oxoisoindolin-2-yl)dihydropyrimidine-2,4(1H,3H)-dione] | A (0% ≤ substrate protein remaining % ≤80%) | B (80%< substrate protein remaining % ≤100%) | A (0% ≤ substrate protein remaining % ≤80%) | B (80%< substrate protein remaining % ≤100%) | A (0% ≤ substrate protein remaining % ≤80%) | A (0% ≤ substrate protein remaining % ≤80%)
O=C1CCN(N2C(=O)c3ccc(CN4CC5CCC4CN5C(c4ccccc4)c4ccccc4)cc3C2=O)C(=O)N1 (stereo not drawn) [GT-06451, 5-((5-benzhydryl-2,5-diazabicyclo[2.2.2]octan-2-yl)methyl)-2-(2,4-dioxotetrahydropyrimidin-1(2H)-yl)isoindoline-1,3-dione] | A (0% ≤ substrate protein remaining % ≤80%) | B (80%< substrate protein remaining % ≤100%) | B (80%< substrate protein remaining % ≤100%) | B (80%< substrate protein remaining % ≤100%) | B (80%< substrate protein remaining % ≤100%) | B (80%< substrate protein remaining % ≤100%)
O=C1CCN(N2Cc3cc(CN4CC5CCC(C4)N5C(c4ccccc4)c4ccccc4)ccc3C2=O)C(=O)N1 [GT-06452, 1-(5-((8-benzhydryl-3,8-diazabicyclo[3.2.1]octan-3-yl)methyl)-1-oxoisoindolin-2-yl)dihydropyrimidine-2,4(1H,3H)-dione] | A (0% ≤ substrate protein remaining % ≤80%) | B (80%< substrate protein remaining % ≤100%) | B (80%< substrate protein remaining % ≤100%) | B (80%< substrate protein remaining % ≤100%) | B (80%< substrate protein remaining % ≤100%) | B (80%< substrate protein remaining % ≤100%)
O=C1CCN(N2C(=O)c3ccc(CN4CC5CCC(C4)N5C(c4ccccc4)c4ccccc4)cc3C2=O)C(=O)N1 [GT-06453, 5-((8-benzhydryl-3,8-diazabicyclo[3.2.1]octan-3-yl)methyl)-2-(2,4-dioxotetrahydropyrimidin-1(2H)-yl)isoindoline-1,3-dione] | B (80%< substrate protein remaining % ≤100%) | B (80%< substrate protein remaining % ≤100%) | B (80%< substrate protein remaining % ≤100%) | B (80%< substrate protein remaining % ≤100%) | A (0% ≤ substrate protein remaining % ≤80%) | B (80%< substrate protein remaining % ≤100%)
O=C1CCN(N2Cc3cc(CN4C5CCC4CN(C(c4ccccc4)c4ccccc4)C5)ccc3C2=O)C(=O)N1 [GT-06454, 1-(5-((3-benzhydryl-3,8-diazabicyclo[3.2.1]octan-8-yl)methyl)-1-oxoisoindolin-2-yl)dihydropyrimidine-2,4(1H,3H)-dione] | A (0% ≤ substrate protein remaining % ≤80%) | B (80%< substrate protein remaining % ≤100%) | B (80%< substrate protein remaining % ≤100%) | B (80%< substrate protein remaining % ≤100%) | B (80%< substrate protein remaining % ≤100%) | B (80%< substrate protein remaining % ≤100%)
O=C1CCN(N2C(=O)c3ccc(CN4C5CCC4CN(C(c4ccccc4)c4ccccc4)C5)cc3C2=O)C(=O)N1 [GT-06455, 5-((3-benzhydryl-3,8-diazabicyclo[3.2.1]octan-8-yl)methyl)-2-(2,4-dioxotetrahydropyrimidin-1(2H)-yl)isoindoline-1,3-dione] | A (0% ≤ substrate protein remaining % ≤80%) | B (80%< substrate protein remaining % ≤100%) | B (80%< substrate protein remaining % ≤100%) | B (80%< substrate protein remaining % ≤100%) | B (80%< substrate protein remaining % ≤100%) | B (80%< substrate protein remaining % ≤100%)
CC1(C)CCC(CN2CC3CC(C2)N3Cc2ccc3c(c2)C(=O)N(N2CCC(=O)NC2=O)C3=O)=C(c2ccc(Cl)cc2)C1 [GT-06457, 5-((3-((4′-chloro-5,5-dimethyl-3,4,5,6-tetrahydro-[1,1′-biphenyl]-2-yl)methyl)-3,6-diazabicyclo[3.1.1]heptan-6-yl)methyl)-2-(2,4-dioxotetrahydropyrimidin-1(2H)-yl)isoindoline-1,3-dione] | A (0% ≤ substrate protein remaining % ≤80%) | A (0% ≤ substrate protein remaining % ≤80%) | A (0% ≤ substrate protein remaining % ≤80%) | A (0% ≤ substrate protein remaining % ≤80%) | A (0% ≤ substrate protein remaining % ≤80%) | A (0% ≤ substrate protein remaining % ≤80%)
